Experimental data reported in ChEMBL document CHEMBL1240428, “Conventional and microwave assisted synthesis of some new N-[(4-oxo-2-substituted aryl -1, 3-thiazolidine)-acetamidyl]-5-nitroindazoles and its antimicrobial activity” (2010).
≈ marks a conversion by molar mass, not a printed value.

Experiments:
Escherichia coli [1] = assay: Antibacterial activity against Escherichia coli at 100 ug/mL; format: functional; settings: read-out: IZ
Penicillium citrinum [2] = assay: Antifungal activity against Penicillium citrinum; format: functional
Fusarium oxysporum [3] = assay: Antifungal activity against Fusarium oxysporum at 100 ug/mL; format: functional; settings: read-out: IZ
Fusarium oxysporum [4] = assay: Antifungal activity against Fusarium oxysporum; format: functional
Escherichia coli [5] = assay: Antibacterial activity against Escherichia coli at 50 ug/mL; format: functional; settings: read-out: IZ
Bacillus subtilis [6] = assay: Antibacterial activity against Bacillus subtilis; format: functional
Salmonella typhi [7] = assay: Antibacterial activity against Salmonella typhi
Aspergillus flavus [8] = assay: Antifungal activity against Aspergillus flavus; format: functional
Salmonella typhi [9] = assay: Antibacterial activity against Salmonella typhi at 50 ug/mL; settings: read-out: IZ
Aspergillus flavus [10] = assay: Antifungal activity against Aspergillus flavus at 50 ug/mL; format: functional; settings: read-out: IZ
Fusarium oxysporum [11] = assay: Antifungal activity against Fusarium oxysporum at 50 ug/mL; format: functional; settings: read-out: IZ
Penicillium citrinum [12] = assay: Antifungal activity against Penicillium citrinum at 100 ug/mL; format: functional; settings: read-out: IZ
Salmonella typhi [13] = assay: Antibacterial activity against Salmonella typhi at 100 ug/mL; settings: read-out: IZ
Bacillus subtilis [14] = assay: Antibacterial activity against Bacillus subtilis at 50 ug/mL; format: functional; settings: read-out: IZ
Bacillus subtilis [15] = assay: Antibacterial activity against Bacillus subtilis at 100 ug/mL; format: functional; settings: read-out: IZ
Aspergillus flavus [16] = assay: Antifungal activity against Aspergillus flavus at 100 ug/mL; format: functional; settings: read-out: IZ
Penicillium citrinum [17] = assay: Antifungal activity against Penicillium citrinum at 50 ug/mL; format: functional; settings: read-out: IZ
Escherichia coli [18] = assay: Antibacterial activity against Escherichia coli; format: functional

SMILES	zone of inhibition at 100 µg/mL (Escherichia coli [1]) [mm]	MIC (Penicillium citrinum [2]) [µg/mL]	zone of inhibition at 100 µg/mL (Fusarium oxysporum [3]) [mm]	MIC (Fusarium oxysporum [4]) [µg/mL]	zone of inhibition at 50 µg/mL (Escherichia coli [5]) [mm]	MIC (Bacillus subtilis [6]) [µg/mL]	MIC (Salmonella typhi [7]) [µg/mL]	MIC (Aspergillus flavus [8]) [µg/mL]	zone of inhibition at 50 µg/mL (Salmonella typhi [9]) [mm]	zone of inhibition at 50 µg/mL (Aspergillus flavus [10]) [mm]	zone of inhibition at 50 µg/mL (Fusarium oxysporum [11]) [mm]	zone of inhibition at 100 µg/mL (Penicillium citrinum [12]) [mm]	zone of inhibition at 100 µg/mL (Salmonella typhi [13]) [mm]	zone of inhibition at 50 µg/mL (Bacillus subtilis [14]) [mm]	zone of inhibition at 100 µg/mL (Bacillus subtilis [15]) [mm]	zone of inhibition at 100 µg/mL (Aspergillus flavus [16]) [mm]	zone of inhibition at 50 µg/mL (Penicillium citrinum [17]) [mm]	MIC (Escherichia coli [18]) [µg/mL]
CCOC(=O)Cn1ncc2cc([N+](=O)[O-])ccc21	8	40 (≈ 160 µM)	9	30 (≈ 120 µM)	5	45 (≈ 181 µM)	38 (≈ 152 µM)	34 (≈ 136 µM)	4	5.8	6.5	6	7	3	5	8	4	35 (≈ 140 µM)
NNC(=O)Cn1ncc2cc([N+](=O)[O-])ccc21	10	38 (≈ 162 µM)	10.5	28 (≈ 119 µM)	7	43 (≈ 183 µM)	36 (≈ 153 µM)	32 (≈ 136 µM)	6	7	8.3	8.9	8	5	7	10	6	32 (≈ 136 µM)
O=C(Cn1ncc2cc([N+](=O)[O-])ccc21)N/N=C/c1ccccc1	16.4	30 (≈ 92.8 µM)	17.4	17 (≈ 52.6 µM)	14	30 (≈ 92.8 µM)	22 (≈ 68 µM)	20 (≈ 61.9 µM)	12.7	13.6	15	15.5	16	11.5	14.8	16.7	11.5	22 (≈ 68 µM)
O=C(Cn1ncc2cc([N+](=O)[O-])ccc21)N/N=C/c1ccccc1O	18	28 (≈ 82.5 µM)	18.5	15 (≈ 44.2 µM)	15.4	25 (≈ 73.7 µM)	20 (≈ 58.9 µM)	19 (≈ 56 µM)	13.8	14.9	16.2	16.8	17.5	12.8	16	18	12	20 (≈ 58.9 µM)
O=C(Cn1ncc2cc([N+](=O)[O-])ccc21)N/N=C/c1ccccc1Cl	21	22 (≈ 61.5 µM)	22	13 (≈ 36.3 µM)	18.2	20 (≈ 55.9 µM)	17 (≈ 47.5 µM)	17 (≈ 47.5 µM)	16.9	19	20.1	20.5	21	16	19.4	22	15.8	16 (≈ 44.7 µM)
O=C(Cn1ncc2cc([N+](=O)[O-])ccc21)N/N=C/c1ccc(Cl)cc1	21.9	20 (≈ 55.9 µM)	22.9	13 (≈ 36.3 µM)	19	18 (≈ 50.3 µM)	17 (≈ 47.5 µM)	17 (≈ 47.5 µM)	18	20	20.8	21.4	21.7	16.8	20.1	22.7	16.8	17 (≈ 47.5 µM)
O=C(Cn1ncc2cc([N+](=O)[O-])ccc21)N/N=C/c1ccccc1Br	19.4	28 (≈ 69.6 µM)	19.8	15 (≈ 37.3 µM)	16.8	22 (≈ 54.7 µM)	18 (≈ 44.8 µM)	19 (≈ 47.2 µM)	15	16.4	17.8	18	19	14	17.4	19.4	13.3	18 (≈ 44.8 µM)
O=C(Cn1ncc2cc([N+](=O)[O-])ccc21)N/N=C/c1cccc(Br)c1	20.1	25 (≈ 62.2 µM)	20.7	15 (≈ 37.3 µM)	17.4	21 (≈ 52.2 µM)	18 (≈ 44.8 µM)	18 (≈ 44.8 µM)	15.9	17.8	18.8	19	20	15.1	18.3	20.9	14.5	18 (≈ 44.8 µM)
O=C(Cn1ncc2cc([N+](=O)[O-])ccc21)N/N=C/c1ccccc1[N+](=O)[O-]	22.8	20 (≈ 54.3 µM)	24.2	11 (≈ 29.9 µM)	20	17 (≈ 46.2 µM)	15 (≈ 40.7 µM)	14 (≈ 38 µM)	19	21.4	22	22.7	22.8	18	21	24	18	15 (≈ 40.7 µM)
O=C(Cn1ncc2cc([N+](=O)[O-])ccc21)N/N=C/c1cccc([N+](=O)[O-])c1	23.5	18 (≈ 48.9 µM)	25.4	11 (≈ 29.9 µM)	20.9	16 (≈ 43.4 µM)	15 (≈ 40.7 µM)	13 (≈ 35.3 µM)	20	22.5	22.9	23.8	23.6	18.7	21.9	24.9	19	15 (≈ 40.7 µM)
COc1ccccc1/C=N/NC(=O)Cn1ncc2cc([N+](=O)[O-])ccc21	14	35 (≈ 99.1 µM)	15.2	20 (≈ 56.6 µM)	11.5	38 (≈ 108 µM)	30 (≈ 84.9 µM)	23 (≈ 65.1 µM)	9.8	11	12.6	12.8	13.5	9	12.8	14	9.1	27 (≈ 76.4 µM)
COc1ccc(/C=N/NC(=O)Cn2ncc3cc([N+](=O)[O-])ccc32)cc1	15	32 (≈ 90.6 µM)	16.2	18 (≈ 50.9 µM)	12.6	38 (≈ 108 µM)	25 (≈ 70.8 µM)	22 (≈ 62.3 µM)	11	12.2	13.9	14	14.8	10	13.9	15.1	10	25 (≈ 70.8 µM)
Cc1ccc(/C=N/NC(=O)Cn2ncc3cc([N+](=O)[O-])ccc32)cc1	11	38 (≈ 113 µM)	12.6	25 (≈ 74.1 µM)	9	42 (≈ 125 µM)	34 (≈ 101 µM)	30 (≈ 88.9 µM)	7	8	10.8	10	10	6	9	11	7.1	31 (≈ 91.9 µM)
COC1=CC(=O)C[C@@H](C)[C@]12Oc1c(Cl)c(OC)cc(OC)c1C2=O [GRISEOFULVIN]	–	11 (≈ 31.2 µM)	32	6 (≈ 17 µM)	–	–	–	9 (≈ 25.5 µM)	–	27	28	28	–	–	–	30	25	–
CN[C@@H]1[C@H](O[C@H]2[C@H](O[C@H]3[C@H](O)[C@@H](O)[C@H](N=C(N)N)[C@@H](O)[C@@H]3N=C(N)N)O[C@@H](C)[C@]2(O)C=O)O[C@@H](CO)[C@H](O)[C@H]1O [STREPTOMYCIN]	30	–	–	–	26	12 (≈ 20.6 µM)	10 (≈ 17.2 µM)	–	25	–	–	–	28	23	27	–	–	8 (≈ 13.8 µM)
